Read-outs that look alike come from different tables or passages of the source. Numbered stars: 1 amine (or outer) side, 2 acyl side, 3 side chain; on linkers, the order of the positions; unused ones are H or OH. Bridge positions count the residues as written; N and C are the ends. Square brackets hold non-standard residues; d marks the D form. Peptide text beside a SMILES is read from it. * marks the point of attachment. Phe(3-CF3) = N[C@@H](Cc1cccc(C(F)(F)F)c1)C(=O)O; X8 = N=C(N)NCc1cccc(C[C@H](N[*:1])C(=O)[*:2])c1; Ala(morpholin-4-yl) = N[C@@H](CN1CCOCC1)C(=O)O; Phe(4-COOH) = N[C@@H](Cc1ccc(C(=O)O)cc1)C(=O)O; Phe(3,5-F2) = N[C@@H](Cc1cc(F)cc(F)c1)C(=O)O; Bip = N[C@@H](Cc1ccc(-c2ccccc2)cc1)C(=O)O; Phe(4-Cl) = N[C@@H](Cc1ccc(Cl)cc1)C(=O)O; Abu(3R-NH2) = C[C@@H](N)[C@H](N)C(=O)O; Phe(3-Me) = Cc1cccc(C[C@H](N)C(=O)O)c1; Glutaryl = O=C(CCCC(=O)[*:2])[*:1]; hPhe = N[C@@H](CCc1ccccc1)C(=O)O; 3Pal = N[C@@H](Cc1cccnc1)C(=O)O; Cha = N[C@@H](CC1CCCCC1)C(=O)O; Carboxymethyl = O=C(O)C*; NMeA = CN[C@@H](C)C(=O)O; Orn = NCCC[C@H](N)C(=O)O; Dab = NCC[C@H](N)C(=O)O; Dap = NC[C@H](N)C(=O)O
What was measured:
[1] = target: T1, Alexa fluor-647 labeled human PD-L1-Ig binding to Jurkat cell line over-expressing human PD-1 (Homo sapiens, UniProt Q15116); assay: Jurkat-PD-1 Cell Binding High-Content Screening Assay (CBA): Method 3 (Alexa fluor-647 labeled PD-L1-Ig); settings: Jurkat-PD-1 cells, Alexa fluor-647 labeled PD-L1-Ig 177 nM
T1 construct: expressed in transfected cells; host or cells: Jurkat
T1 sequence (Q15116 25-288): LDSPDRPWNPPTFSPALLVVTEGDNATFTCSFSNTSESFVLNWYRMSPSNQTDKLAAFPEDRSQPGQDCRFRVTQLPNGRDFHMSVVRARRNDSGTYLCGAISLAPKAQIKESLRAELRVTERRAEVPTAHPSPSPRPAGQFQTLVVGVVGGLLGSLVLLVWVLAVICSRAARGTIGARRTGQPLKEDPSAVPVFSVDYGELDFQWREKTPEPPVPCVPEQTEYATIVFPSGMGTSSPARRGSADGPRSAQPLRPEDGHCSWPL
Summary of the method: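 Readout by high-content imaging of PFA-fixed, Hoechst-stained cells after 1 h with 177 nM (final) Alexa fluor-647 PD-L1-Ig. Compound was added first to hPD-1 Jurkat cells in RPMI plus 10% FCS for 2 h at 37 °C.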

[2] = target: T2, PD1-PDL1 protein-protein binding interaction [hPD1(25-167)-hIgG, hPD-L1 (19-239)-6xHis] (Homo sapiens, UniProt Q15116); assay: HTRF Assay (TR-FRET); settings: 5 nM hPD1-hIgG, 5 nM hPD-L1-6xHis, 24 hours at 25° C., head μM
T2 construct: hPD1(25-167)-hIgG, BMS
T2 sequence (Q15116 25-167): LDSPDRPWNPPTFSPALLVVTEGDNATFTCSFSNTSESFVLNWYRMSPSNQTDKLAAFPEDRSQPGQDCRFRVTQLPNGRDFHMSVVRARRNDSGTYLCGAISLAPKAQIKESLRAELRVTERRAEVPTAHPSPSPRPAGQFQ
Procedure: A time-resolved fluorescence resonance energy transfer (TR-FRET) assay was employed to measure the inhibition of the PD1-PDL1 protein-protein binding interaction. The reaction buffer was prepared by mixing the HiBlock buffer and LANCE detection buffer (PerkinElmer, TRF1011F and CR97-100) at a 1:1 ratio. Assay reactions contained 5 nM human programmed cell death 1 [hPD1(25-167)-hIgG, BMS], 5 nM human programmed cell death ligand 1 [hPD-L1 (19-239)-6×His, BMS], in the presence of 1 nM LANCE Eu-W1024 Anti-Human IgG (Eu-anti hIgG, PerkinElmer, AD0074) and 20 nM SureLight Allophycocyanin-anti-6×His antibody (APC-anti-6×His, PerkinElmer, AD0059H). Test compounds were evaluated in a 10-point dose-response format with serial three-fold dilutions starting from a 2 uM top concentration. Reactions were carried out in a total volume of 10 uL in 384-well microtiter plates (Proxiplate white, PerkinElmer, 6008289). Plates were sealed and incubated for 24 hours at 25° C. After 24 hours, the TR-FRET signal was measured using a PerkinElmer EnVision multimode plate reader and the resulting ratiometric data set (signal at 665 nm/615 nm, multiplied by a factor of 10,000) was recorded. The concentration giving half-maximal inhibition (the IC50) was obtained by fitting the data to a four-parameter logistic equation using Graphpad Prism or Dotmatics.

[3] = head μM, read-out: CBA Method 3 μM

Row | IC50 ([1]; nM, read-out: CBA Method 3) | IC50 [2] | IC50 [1, 3] | Compound
1 | 3.8 nM | 0.04 µM |  | CC(C)C[C@H]1NC(=O)[C@H](C)N(C)C(=O)[C@H](Cc2ccc(C(=O)O)cc2)NC(=O)[C@H](Cc2ccc(-c3ccccc3)cc2)NC(=O)[C@H](Cc2ccc(C(=O)O)cc2)NC(=O)[C@H](Cc2cccc(C(F)(F)F)c2)NC(=O)[C@H](CC(=O)O)NC(=O)[C@H](Cc2ccc(C(=O)O)cc2)NC(=O)[C@H](CC2CCCCC2)NC(=O)CSC[C@@H](C(=O)N[C@@H](CCN)C(N)=O)NC(=O)[C@H](CNC(=O)CCCC(=O)O)NC(=O)[C@H](C(C)C)NC(=O)[C@H](CC2CCCCC2)NC(=O)[C@H](CCN)NC1=O [Example 5229] ({CH2CO}-[Cha][Phe(4-COOH)]D[Phe(3-CF3)][Phe(4-COOH)][Bip][Phe(4-COOH)][NMeA][dL][Dab][Cha]V[Dap](Glutaryl)C[Dab]-NH2; thioether N-14)
2 | 3.6 nM | 0.03 µM |  | CC(C)C[C@H]1NC(=O)[C@H](C)N(C)C(=O)[C@H](CCC(N)=O)NC(=O)[C@H](Cc2ccc(-c3ccccc3)cc2)NC(=O)[C@H](CCc2ccccc2)NC(=O)[C@H](Cc2cccc(C(F)(F)F)c2)NC(=O)[C@H](CC(=O)O)NC(=O)[C@H](Cc2ccc(O)cc2)NC(=O)[C@H](CN2CCOCC2)NC(=O)CSC[C@@H](C(=O)N[C@@H](CCN)C(N)=O)NC(=O)[C@H](CCCN)NC(=O)[C@H](C(C)C)NC(=O)[C@H](CC2CCCCC2)NC(=O)[C@H](CCN)NC1=O [Example 5235] ({CH2CO}-[Ala(morpholin-4-yl)]YD[Phe(3-CF3)][hPhe][Bip]Q[NMeA][dL][Dab][Cha]V[Orn]C[Dab]-NH2; thioether N-14)
3 | 1.1 nM | 0.1 µM |  | CC(C)C[C@H]1NC(=O)[C@H](C)N(C)C(=O)[C@H](CCC(N)=O)NC(=O)[C@H](Cc2ccc(-c3ccccc3)cc2)NC(=O)[C@H](CCc2ccccc2)NC(=O)[C@H](Cc2cccc(C(F)(F)F)c2)NC(=O)[C@H](CC(=O)O)NC(=O)[C@H](Cc2ccc(O)cc2)NC(=O)[C@H]([C@@H](C)N)NC(=O)CSC[C@@H](C(=O)N[C@@H](CCN)C(N)=O)NC(=O)[C@H](CCCN)NC(=O)[C@H](C(C)C)NC(=O)[C@H](CC2CCCCC2)NC(=O)[C@H](CCN)NC1=O [Example 5236] ({CH2CO}-[Abu(3R-NH2)]YD[Phe(3-CF3)][hPhe][Bip]Q[NMeA][dL][Dab][Cha]V[Orn]C[Dab]-NH2; thioether N-14)
4 | 4.4 nM | 0.03 µM |  | CC(C)C[C@H]1NC(=O)[C@H](C)N(C)C(=O)[C@H](CCC(N)=O)NC(=O)[C@H](Cc2ccc(-c3ccccc3)cc2)NC(=O)[C@H](Cc2ccc(OCC(=O)O)cc2)NC(=O)[C@H](Cc2cccc(C(F)(F)F)c2)NC(=O)[C@H](CC(=O)O)NC(=O)[C@H](Cc2ccc(O)cc2)NC(=O)[C@H](CN2CCOCC2)NC(=O)CSC[C@@H](C(=O)N[C@@H](CCN)C(N)=O)NC(=O)[C@H](CCCN)NC(=O)[C@H](C(C)C)NC(=O)[C@H](CC2CCCCC2)NC(=O)[C@H](CCN)NC1=O [Example 5237] ({CH2CO}-[Ala(morpholin-4-yl)]YD[Phe(3-CF3)]Y(Carboxymethyl)[Bip]Q[NMeA][dL][Dab][Cha]V[Orn]C[Dab]-NH2; thioether N-14)
5 |  | 0.02 µM | 20 nM | CC(C)C[C@H]1NC(=O)[C@H](C)N(C)C(=O)[C@H](CCC(N)=O)NC(=O)[C@H](Cc2ccc(-c3ccccc3)cc2)NC(=O)[C@H](Cc2ccc(OCC(=O)O)cc2)NC(=O)[C@H](Cc2cccc(C(F)(F)F)c2)NC(=O)[C@H](CC(=O)O)NC(=O)[C@H](Cc2ccc(O)cc2)NC(=O)[C@H]([C@@H](C)N)NC(=O)CSC[C@@H](C(=O)N[C@@H](CCN)C(N)=O)NC(=O)[C@H](CCCN)NC(=O)[C@H](C(C)C)NC(=O)[C@H](CC2CCCCC2)NC(=O)[C@H](CCN)NC1=O [Example 5239] ({CH2CO}-[Abu(3R-NH2)]YD[Phe(3-CF3)]Y(Carboxymethyl)[Bip]Q[NMeA][dL][Dab][Cha]V[Orn]C[Dab]-NH2; thioether N-14)
6 | 2.2 nM | 0.03 µM |  | CC(C)C[C@H]1NC(=O)[C@H](C)N(C)C(=O)[C@H](CCC(N)=O)NC(=O)[C@H](Cc2ccc(-c3ccccc3)cc2)NC(=O)[C@H](CCc2ccccc2)NC(=O)[C@H](Cc2cccc(C(F)(F)F)c2)NC(=O)[C@H](CC(=O)O)NC(=O)[C@H](Cc2cccnc2)NC(=O)[C@H](CN2CCOCC2)NC(=O)CSC[C@@H](C(=O)N[C@@H](CCN)C(N)=O)NC(=O)[C@H](CCCN)NC(=O)[C@H](C(C)C)NC(=O)[C@H](CC2CCCCC2)NC(=O)[C@H](CCN)NC1=O [Example 5243] ({CH2CO}-[Ala(morpholin-4-yl)][3Pal]D[Phe(3-CF3)][hPhe][Bip]Q[NMeA][dL][Dab][Cha]V[Orn]C[Dab]-NH2; thioether N-14)
7 | 6.4 nM | 0.03 µM |  | CC(C)C[C@H]1NC(=O)[C@H](C)N(C)C(=O)[C@H](CCC(N)=O)NC(=O)[C@H](Cc2ccc(-c3ccccc3)cc2)NC(=O)[C@H](CCc2ccccc2)NC(=O)[C@H](Cc2cccc(C(F)(F)F)c2)NC(=O)[C@H](CC(=O)O)NC(=O)[C@H](Cc2cccnc2)NC(=O)[C@H]([C@@H](C)N)NC(=O)CSC[C@@H](C(=O)N[C@@H](CCN)C(N)=O)NC(=O)[C@H](CCCN)NC(=O)[C@H](C(C)C)NC(=O)[C@H](CC2CCCCC2)NC(=O)[C@H](CCN)NC1=O [Example 5244] ({CH2CO}-[Abu(3R-NH2)][3Pal]D[Phe(3-CF3)][hPhe][Bip]Q[NMeA][dL][Dab][Cha]V[Orn]C[Dab]-NH2; thioether N-14)
8 |  | 0.01 µM | 10 nM | CC(C)C[C@H]1NC(=O)[C@H](C)N(C)C(=O)[C@H](CCC(N)=O)NC(=O)[C@H](Cc2ccc(-c3ccccc3)cc2)NC(=O)[C@H](CCc2ccccc2)NC(=O)[C@H](Cc2cccc(C(F)(F)F)c2)NC(=O)[C@H](CC(=O)O)NC(=O)[C@H](CCC(N)=O)NC(=O)[C@H](CN2CCOCC2)NC(=O)CSC[C@@H](C(=O)N[C@@H](CCN)C(N)=O)NC(=O)[C@H](CCCN)NC(=O)[C@H](C(C)C)NC(=O)[C@H](CC2CCCCC2)NC(=O)[C@H](CCN)NC1=O [Example 5245] ({CH2CO}-[Ala(morpholin-4-yl)]QD[Phe(3-CF3)][hPhe][Bip]Q[NMeA][dL][Dab][Cha]V[Orn]C[Dab]-NH2; thioether N-14)
9 | 3 nM | 0.015 µM |  | Cc1cccc(C[C@@H]2NC(=O)[C@H](CC(=O)O)NC(=O)[C@H](Cc3ccc(OCC(=O)O)cc3)NC(=O)[C@H](Cc3cccc(CNC(=N)N)c3)NC(=O)CSC[C@@H](C(=O)N[C@@H](CCN)C(N)=O)NC(=O)[C@H](CCCN)NC(=O)[C@H](C(C)C)NC(=O)[C@H](CC3CCCCC3)NC(=O)[C@H](CCN)NC(=O)[C@@H](CC(C)C)NC(=O)[C@H](C)N(C)C(=O)[C@H](CCC(N)=O)NC(=O)[C@H](Cc3ccc(-c4ccccc4)cc3)NC(=O)[C@H](Cc3ccc(C(=O)O)cc3)NC2=O)c1 [Example 5279] ({CH2CO}-[X8]Y(Carboxymethyl)D[Phe(3-Me)][Phe(4-COOH)][Bip]Q[NMeA][dL][Dab][Cha]V[Orn]C[Dab]-NH2; thioether N-14)
10 |  | 0.01 µM | 200 nM | Cc1cccc(C[C@@H]2NC(=O)[C@H](CC(=O)O)NC(=O)[C@H](Cc3ccc(OCC(=O)O)cc3)NC(=O)[C@H](Cc3cc(F)cc(F)c3)NC(=O)CSC[C@@H](C(=O)N[C@@H](CCN)C(N)=O)NC(=O)[C@H](CCCN)NC(=O)[C@H](C(C)C)NC(=O)[C@H](CC3CCCCC3)NC(=O)[C@H](CCN)NC(=O)[C@@H](CC(C)C)NC(=O)[C@H](C)N(C)C(=O)[C@H](CCC(N)=O)NC(=O)[C@H](Cc3ccc(-c4ccccc4)cc3)NC(=O)[C@H](Cc3ccc(C(=O)O)cc3)NC2=O)c1 [Example 5284] ({CH2CO}-[Phe(3,5-F2)]Y(Carboxymethyl)D[Phe(3-Me)][Phe(4-COOH)][Bip]Q[NMeA][dL][Dab][Cha]V[Orn]C[Dab]-NH2; thioether N-14)
11 | 1 nM | 0.08 µM |  | Cc1cccc(C[C@@H]2NC(=O)[C@H](CC(=O)O)NC(=O)[C@H](Cc3ccc(OCC(=O)O)cc3)NC(=O)[C@H](Cc3ccc(Cl)cc3)NC(=O)CSC[C@@H](C(=O)N[C@@H](CCN)C(N)=O)NC(=O)[C@H](CCCN)NC(=O)[C@H](C(C)C)NC(=O)[C@H](CC3CCCCC3)NC(=O)[C@H](CCN)NC(=O)[C@@H](CC(C)C)NC(=O)[C@H](C)N(C)C(=O)[C@H](CCC(N)=O)NC(=O)[C@H](Cc3ccc(-c4ccccc4)cc3)NC(=O)[C@H](Cc3ccc(C(=O)O)cc3)NC2=O)c1 [Example 5288] ({CH2CO}-[Phe(4-Cl)]Y(Carboxymethyl)D[Phe(3-Me)][Phe(4-COOH)][Bip]Q[NMeA][dL][Dab][Cha]V[Orn]C[Dab]-NH2; thioether N-14)
